Test results: the supplement of paper PMC12076712

Columns and labels:
Test in all cases: pIC50, kinobeads binding competition
EPHB2 = biological target: T1, EPHB2 (UniProt P29323)
T1 sequence (whole entry): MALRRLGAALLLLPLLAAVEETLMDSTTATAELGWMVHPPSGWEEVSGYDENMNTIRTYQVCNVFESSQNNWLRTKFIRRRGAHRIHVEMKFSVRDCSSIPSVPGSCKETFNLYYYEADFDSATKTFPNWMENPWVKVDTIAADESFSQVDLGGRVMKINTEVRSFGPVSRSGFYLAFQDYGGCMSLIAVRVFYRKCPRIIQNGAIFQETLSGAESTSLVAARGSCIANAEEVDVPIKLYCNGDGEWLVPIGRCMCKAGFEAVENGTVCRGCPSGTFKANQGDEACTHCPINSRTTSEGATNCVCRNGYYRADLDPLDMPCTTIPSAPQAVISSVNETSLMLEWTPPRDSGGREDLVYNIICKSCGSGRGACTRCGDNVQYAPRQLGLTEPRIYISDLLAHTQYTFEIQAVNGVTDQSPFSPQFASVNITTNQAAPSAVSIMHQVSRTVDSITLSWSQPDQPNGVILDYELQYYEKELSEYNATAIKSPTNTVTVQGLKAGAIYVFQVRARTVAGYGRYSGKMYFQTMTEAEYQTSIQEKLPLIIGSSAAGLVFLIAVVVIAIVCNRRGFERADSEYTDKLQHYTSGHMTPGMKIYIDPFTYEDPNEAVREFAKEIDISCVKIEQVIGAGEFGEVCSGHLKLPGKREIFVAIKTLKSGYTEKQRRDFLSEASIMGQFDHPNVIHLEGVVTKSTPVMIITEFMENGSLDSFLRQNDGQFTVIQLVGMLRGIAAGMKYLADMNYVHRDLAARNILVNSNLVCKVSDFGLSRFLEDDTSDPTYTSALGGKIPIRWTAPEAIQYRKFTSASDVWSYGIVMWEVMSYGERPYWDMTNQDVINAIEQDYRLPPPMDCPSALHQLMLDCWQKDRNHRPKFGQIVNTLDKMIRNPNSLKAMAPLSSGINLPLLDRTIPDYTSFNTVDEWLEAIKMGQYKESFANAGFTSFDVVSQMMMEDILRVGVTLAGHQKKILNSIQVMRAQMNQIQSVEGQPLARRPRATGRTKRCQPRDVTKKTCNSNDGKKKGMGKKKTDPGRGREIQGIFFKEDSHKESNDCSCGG
Outline: (§1)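 Nine compound concentrations were tested, starting at 30 μM in 1:4 steps on live Jurkat cells (60 min, 37 °C, then lysis) or in 1:5 steps on Jurkat lysate or a 1:1:1:1 HEK293/K-562/HepG2/placenta lysate mix (60 min, 4 °C). Kinobeads-bound proteins were digested and quantified with TMT10 LC-MS/MS. pIC50 values are from logistic dose-response fits in the R drc package of fold changes relative to vehicle, from biological duplicates.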

LRRK2 = LRRK2 (UniProt Q5S007); settings: cell material: Lysate mix
LRRK2, sequence (Q5S007 whole entry): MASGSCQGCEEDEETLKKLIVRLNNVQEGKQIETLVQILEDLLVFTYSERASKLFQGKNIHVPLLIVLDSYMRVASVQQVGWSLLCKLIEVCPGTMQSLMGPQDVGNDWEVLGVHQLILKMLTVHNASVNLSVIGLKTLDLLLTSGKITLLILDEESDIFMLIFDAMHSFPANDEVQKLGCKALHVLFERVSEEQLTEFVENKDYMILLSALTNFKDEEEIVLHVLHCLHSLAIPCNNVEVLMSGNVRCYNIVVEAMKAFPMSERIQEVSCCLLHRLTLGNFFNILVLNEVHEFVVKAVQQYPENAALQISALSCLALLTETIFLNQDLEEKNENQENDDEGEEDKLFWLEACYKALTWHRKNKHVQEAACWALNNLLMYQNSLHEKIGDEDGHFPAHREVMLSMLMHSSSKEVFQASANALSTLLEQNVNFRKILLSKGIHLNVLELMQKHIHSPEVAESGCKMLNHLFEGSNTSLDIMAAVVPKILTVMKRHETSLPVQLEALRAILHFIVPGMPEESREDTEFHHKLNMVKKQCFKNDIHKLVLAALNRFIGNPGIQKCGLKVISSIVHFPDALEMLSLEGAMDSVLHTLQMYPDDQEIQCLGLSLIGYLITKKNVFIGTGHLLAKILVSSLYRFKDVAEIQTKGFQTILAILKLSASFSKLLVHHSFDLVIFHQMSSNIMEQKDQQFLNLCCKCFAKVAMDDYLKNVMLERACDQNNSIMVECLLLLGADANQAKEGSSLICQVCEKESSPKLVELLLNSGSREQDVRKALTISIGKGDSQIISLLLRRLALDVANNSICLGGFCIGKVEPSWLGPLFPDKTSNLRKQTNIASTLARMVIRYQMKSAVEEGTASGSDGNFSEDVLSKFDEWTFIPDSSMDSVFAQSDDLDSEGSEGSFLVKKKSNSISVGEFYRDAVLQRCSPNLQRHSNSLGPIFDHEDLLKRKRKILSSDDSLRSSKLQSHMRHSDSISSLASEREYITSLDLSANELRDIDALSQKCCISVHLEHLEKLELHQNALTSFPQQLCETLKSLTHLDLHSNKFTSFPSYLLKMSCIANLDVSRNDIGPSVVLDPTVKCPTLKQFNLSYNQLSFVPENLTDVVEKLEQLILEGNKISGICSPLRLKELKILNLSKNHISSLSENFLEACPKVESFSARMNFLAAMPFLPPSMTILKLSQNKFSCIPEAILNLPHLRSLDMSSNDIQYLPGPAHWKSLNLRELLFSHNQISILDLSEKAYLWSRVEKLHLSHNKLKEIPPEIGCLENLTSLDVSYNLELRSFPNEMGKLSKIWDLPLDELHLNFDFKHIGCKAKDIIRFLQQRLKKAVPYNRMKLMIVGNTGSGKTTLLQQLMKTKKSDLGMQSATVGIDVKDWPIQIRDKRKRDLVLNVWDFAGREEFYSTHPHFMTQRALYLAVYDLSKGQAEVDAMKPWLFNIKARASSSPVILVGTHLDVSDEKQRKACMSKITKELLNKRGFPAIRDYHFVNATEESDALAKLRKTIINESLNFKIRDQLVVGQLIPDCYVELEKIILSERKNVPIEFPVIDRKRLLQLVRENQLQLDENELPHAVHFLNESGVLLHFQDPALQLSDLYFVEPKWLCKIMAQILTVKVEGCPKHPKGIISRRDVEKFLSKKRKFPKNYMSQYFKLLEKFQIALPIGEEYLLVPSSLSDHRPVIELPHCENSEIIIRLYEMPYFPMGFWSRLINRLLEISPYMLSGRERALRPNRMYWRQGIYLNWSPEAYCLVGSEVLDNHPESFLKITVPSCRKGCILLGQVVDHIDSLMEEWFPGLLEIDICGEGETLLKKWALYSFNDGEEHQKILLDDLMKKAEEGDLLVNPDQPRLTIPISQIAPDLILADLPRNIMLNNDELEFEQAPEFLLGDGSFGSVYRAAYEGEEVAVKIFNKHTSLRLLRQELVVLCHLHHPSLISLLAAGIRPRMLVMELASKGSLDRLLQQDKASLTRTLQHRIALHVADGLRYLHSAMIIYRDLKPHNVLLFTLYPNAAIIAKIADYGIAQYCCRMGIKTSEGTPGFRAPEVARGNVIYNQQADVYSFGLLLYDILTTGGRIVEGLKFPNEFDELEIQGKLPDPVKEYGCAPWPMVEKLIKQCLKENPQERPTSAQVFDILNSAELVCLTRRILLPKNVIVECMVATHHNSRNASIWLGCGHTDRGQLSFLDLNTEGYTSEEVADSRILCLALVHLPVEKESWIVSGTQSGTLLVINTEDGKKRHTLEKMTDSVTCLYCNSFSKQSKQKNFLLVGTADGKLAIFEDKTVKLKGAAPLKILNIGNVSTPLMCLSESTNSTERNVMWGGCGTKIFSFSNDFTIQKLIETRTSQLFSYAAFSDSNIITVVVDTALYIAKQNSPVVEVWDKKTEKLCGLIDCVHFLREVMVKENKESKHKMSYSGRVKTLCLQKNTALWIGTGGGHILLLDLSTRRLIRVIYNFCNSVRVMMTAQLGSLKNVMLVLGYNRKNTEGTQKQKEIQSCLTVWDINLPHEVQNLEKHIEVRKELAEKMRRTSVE
Outline: as §1

UniProt P78527 = biological target: UniProt P78527
Outline: as §1

UniProt P50613 = biological target: UniProt P50613
UniProt P50613, sequence (P50613 whole entry): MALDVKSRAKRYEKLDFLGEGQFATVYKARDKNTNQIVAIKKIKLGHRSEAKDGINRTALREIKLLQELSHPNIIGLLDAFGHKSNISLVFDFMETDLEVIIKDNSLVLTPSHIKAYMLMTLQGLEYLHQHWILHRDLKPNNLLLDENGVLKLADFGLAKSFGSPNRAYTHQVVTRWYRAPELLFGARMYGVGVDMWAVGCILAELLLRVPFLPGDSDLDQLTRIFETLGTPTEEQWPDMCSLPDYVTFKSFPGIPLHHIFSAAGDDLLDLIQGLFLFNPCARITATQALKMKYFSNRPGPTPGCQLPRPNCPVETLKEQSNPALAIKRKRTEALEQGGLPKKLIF
Outline: as §1

LYN = LYN (UniProt P07948)
LYN, sequence (P07948 whole entry, looked up): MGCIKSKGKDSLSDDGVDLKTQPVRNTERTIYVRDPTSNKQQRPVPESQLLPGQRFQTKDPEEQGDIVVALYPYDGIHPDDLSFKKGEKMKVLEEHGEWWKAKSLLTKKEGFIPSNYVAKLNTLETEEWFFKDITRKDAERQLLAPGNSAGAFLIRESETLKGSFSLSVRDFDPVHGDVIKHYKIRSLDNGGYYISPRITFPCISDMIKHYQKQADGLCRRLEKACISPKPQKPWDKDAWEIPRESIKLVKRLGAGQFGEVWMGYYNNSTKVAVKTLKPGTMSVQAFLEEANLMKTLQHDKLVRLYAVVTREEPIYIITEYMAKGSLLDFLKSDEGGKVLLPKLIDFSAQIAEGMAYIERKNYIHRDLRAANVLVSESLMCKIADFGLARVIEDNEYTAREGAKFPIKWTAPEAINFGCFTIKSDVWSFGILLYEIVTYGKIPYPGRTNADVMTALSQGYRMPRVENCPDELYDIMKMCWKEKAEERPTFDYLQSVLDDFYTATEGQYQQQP
Outline: as §1

WEE1 = WEE1 (UniProt P30291)
Outline: as §1

UniProt P27361 = biological target: UniProt P27361
UniProt P27361, sequence (P27361 whole entry): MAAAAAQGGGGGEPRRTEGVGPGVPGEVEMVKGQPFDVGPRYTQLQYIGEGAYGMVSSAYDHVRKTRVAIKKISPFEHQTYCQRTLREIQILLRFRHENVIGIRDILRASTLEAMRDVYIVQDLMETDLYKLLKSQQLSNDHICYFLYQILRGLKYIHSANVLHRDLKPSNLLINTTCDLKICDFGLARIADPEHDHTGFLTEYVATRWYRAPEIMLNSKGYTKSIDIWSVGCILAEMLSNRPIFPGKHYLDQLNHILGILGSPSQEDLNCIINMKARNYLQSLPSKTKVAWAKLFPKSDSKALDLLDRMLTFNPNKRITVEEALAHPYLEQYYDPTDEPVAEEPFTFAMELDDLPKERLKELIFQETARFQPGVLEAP
Outline: as §1

TAOK3 = TAOK3 (UniProt Q9H2K8)
TAOK3, sequence (Q9H2K8 whole entry, looked up): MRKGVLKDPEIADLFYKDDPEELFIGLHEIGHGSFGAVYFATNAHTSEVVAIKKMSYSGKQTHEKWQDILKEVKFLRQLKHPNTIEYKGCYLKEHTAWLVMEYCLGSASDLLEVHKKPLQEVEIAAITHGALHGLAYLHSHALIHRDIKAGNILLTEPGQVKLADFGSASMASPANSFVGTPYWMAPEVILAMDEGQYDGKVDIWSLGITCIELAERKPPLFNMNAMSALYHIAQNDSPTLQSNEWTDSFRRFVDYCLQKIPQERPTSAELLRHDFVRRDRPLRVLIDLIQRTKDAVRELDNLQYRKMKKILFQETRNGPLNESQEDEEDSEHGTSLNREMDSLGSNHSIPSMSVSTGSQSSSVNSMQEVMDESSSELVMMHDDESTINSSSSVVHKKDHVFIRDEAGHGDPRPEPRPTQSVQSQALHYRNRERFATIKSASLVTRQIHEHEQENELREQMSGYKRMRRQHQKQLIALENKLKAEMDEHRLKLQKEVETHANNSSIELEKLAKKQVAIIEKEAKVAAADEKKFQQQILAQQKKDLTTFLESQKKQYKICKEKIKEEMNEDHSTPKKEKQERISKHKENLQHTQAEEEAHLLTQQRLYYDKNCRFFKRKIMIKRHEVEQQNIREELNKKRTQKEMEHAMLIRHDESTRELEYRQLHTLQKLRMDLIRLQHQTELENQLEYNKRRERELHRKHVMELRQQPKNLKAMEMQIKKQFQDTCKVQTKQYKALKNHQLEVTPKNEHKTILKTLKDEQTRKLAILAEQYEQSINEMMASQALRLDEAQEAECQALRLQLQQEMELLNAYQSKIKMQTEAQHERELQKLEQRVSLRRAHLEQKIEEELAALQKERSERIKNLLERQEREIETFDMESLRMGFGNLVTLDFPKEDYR
Outline: as §1

UniProt Q15831 = biological target: T2, UniProt Q15831
T2 sequence (whole entry): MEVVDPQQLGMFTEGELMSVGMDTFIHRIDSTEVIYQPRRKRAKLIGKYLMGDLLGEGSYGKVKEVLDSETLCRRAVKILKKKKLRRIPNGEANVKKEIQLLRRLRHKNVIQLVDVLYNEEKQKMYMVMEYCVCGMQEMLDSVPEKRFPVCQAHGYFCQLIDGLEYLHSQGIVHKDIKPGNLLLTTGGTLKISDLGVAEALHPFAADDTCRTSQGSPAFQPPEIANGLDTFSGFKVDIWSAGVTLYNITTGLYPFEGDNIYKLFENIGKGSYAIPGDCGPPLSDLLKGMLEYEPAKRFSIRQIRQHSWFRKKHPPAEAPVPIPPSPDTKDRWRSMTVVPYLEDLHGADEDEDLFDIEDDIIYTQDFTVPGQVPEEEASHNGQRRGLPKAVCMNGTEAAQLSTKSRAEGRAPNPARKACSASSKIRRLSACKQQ
Outline: as §1

| pIC50 (EPHB2; cell material: Lysate mix) | pIC50 (LRRK2) | pIC50 (UniProt P78527; cell material: Lysate mix) | pIC50 (UniProt P50613; cell material: Lysate mix) | pIC50 (LYN; cell material: Lysate mix) | pIC50 (WEE1; cell material: Lysate mix) | pIC50 (UniProt P27361; cell material: Lysate mix) | pIC50 (TAOK3; cell material: Lysate mix) | pIC50 (UniProt Q15831; cell material: Lysate mix) | Structure (SMILES) | pIC50 (EPHB2; cell material: Jurkat cells) | pIC50 (EPHB2; cell material: Jurkat lysate) | pIC50 (UniProt P78527; cell material: Jurkat cells) | pIC50 (UniProt P78527; cell material: Jurkat lysate) | pIC50 (UniProt P50613; cell material: Jurkat cells) | pIC50 (UniProt P50613; cell material: Jurkat lysate) | pIC50 (LYN; cell material: Jurkat lysate) | pIC50 (WEE1; cell material: Jurkat lysate) | pIC50 (UniProt P27361; cell material: Jurkat lysate) | pIC50 (TAOK3; cell material: Jurkat cells) | pIC50 (TAOK3; cell material: Jurkat lysate) | pIC50 (UniProt Q15831; cell material: Jurkat lysate) | pIC50 (WEE1; cell material: Jurkat cells) | pIC50 (UniProt P27361; cell material: Jurkat cells) |
| --- | --- | --- | --- | --- | --- | --- | --- | --- | --- | --- | --- | --- | --- | --- | --- | --- | --- | --- | --- | --- | --- | --- | --- |
| < 4.52 | < 4.52 | < 4.52 | < 4.52 | < 4.52 | < 4.52 | < 4.52 | 6.03 | < 4.52 | Cc1cc(Nc2cc(C(=O)NCCNC(=O)OC3CC/C=C/CCC3)nc(N3CCN(Cc4ccc(S(=O)(=O)F)cc4)CC3)n2)n[nH]1 (stereo not drawn) | – | – | – | – | – | – | – | – | – | – | – | – | – | – |
| < 4.52 | < 4.52 | < 4.52 | – | < 4.52 | < 4.52 | < 4.52 | 5.55 | < 4.52 | O=C(NCCNC(=O)c1cc(Nc2cc(C3CC3)[nH]n2)nc(N2CCN(Cc3ccc(S(=O)(=O)F)cc3)CC2)n1)OC1CC/C=C/CCC1 (stereo not drawn) | < 4.52 | < 4.52 | < 4.52 | < 4.52 | 6.12 | 4.7 | < 4.52 | < 4.52 | < 4.52 | 6.22 | 5.61 | < 4.52 | – | – |
| < 4.52 | 5.46 | < 4.52 | 6.33 | 5.92 | < 4.52 | 4.94 | < 4.52 | 5.4 | CCNC(=O)c1cc(Nc2cc(C3CC3)[nH]n2)nc(N2CCN(Cc3ccc(S(=O)(=O)F)cc3)CC2)n1 | – | – | – | – | – | – | – | – | – | – | – | – | – | – |

The next lines start with the compound.

| Structure (SMILES) | pIC50 (EPHB2; cell material: Lysate mix) | pIC50 (LRRK2) | pIC50 (UniProt P78527; cell material: Lysate mix) | pIC50 (UniProt P50613; cell material: Lysate mix) | pIC50 (LYN; cell material: Lysate mix) | pIC50 (WEE1; cell material: Lysate mix) | pIC50 (UniProt P27361; cell material: Lysate mix) | pIC50 (TAOK3; cell material: Lysate mix) | pIC50 (UniProt Q15831; cell material: Lysate mix) | pIC50 (EPHB2; cell material: Jurkat cells) | pIC50 (EPHB2; cell material: Jurkat lysate) | pIC50 (UniProt P78527; cell material: Jurkat cells) | pIC50 (UniProt P78527; cell material: Jurkat lysate) | pIC50 (UniProt P50613; cell material: Jurkat cells) | pIC50 (UniProt P50613; cell material: Jurkat lysate) | pIC50 (LYN; cell material: Jurkat lysate) | pIC50 (WEE1; cell material: Jurkat lysate) | pIC50 (UniProt P27361; cell material: Jurkat lysate) | pIC50 (TAOK3; cell material: Jurkat cells) | pIC50 (TAOK3; cell material: Jurkat lysate) | pIC50 (UniProt Q15831; cell material: Jurkat lysate) | pIC50 (WEE1; cell material: Jurkat cells) | pIC50 (UniProt P27361; cell material: Jurkat cells) |
| --- | --- | --- | --- | --- | --- | --- | --- | --- | --- | --- | --- | --- | --- | --- | --- | --- | --- | --- | --- | --- | --- | --- | --- |
| C#CCNC(=O)c1cc(Nc2cc(C)[nH]n2)nc(N2CCN(Cc3ccc(S(=O)(=O)F)cc3)CC2)n1 | < 4.52 | 5.27 | < 4.52 | 5.14 | 5.54 | < 4.52 | < 4.52 | < 4.52 | 4.78 | – | – | – | – | – | – | – | – | – | – | – | – | – | – |
| C#CCNC(=O)c1cc(Nc2cc(C3CC3)[nH]n2)nc(N2CCN(Cc3ccc(S(=O)(=O)F)cc3)CC2)n1 | < 4.52 | 5.64 | < 4.52 | 6.35 | 6.03 | < 4.52 | – | < 4.52 | 6.42 | < 4.52 | < 4.52 | < 4.52 | < 4.52 | 6.47 | 5.78 | 5.41 | < 4.52 | < 4.52 | 5.56 | < 4.52 | 5.81 | 5.62 | 5.73 |
| CCNC(=O)c1cc(Nc2cc(C)[nH]n2)nc(N2CCN(Cc3ccc(S(=O)(=O)F)cc3)CC2)n1 | < 4.52 | 5.28 | < 4.52 | 5 | 5.98 | < 4.52 | < 4.52 | < 4.52 | 4.61 | – | – | – | – | – | – | – | – | – | – | – | – | – | – |
